# Legend:
# [1] = drug levels in proximal and distal half of the sciatic nerve after topical PS; format: in vivo, mouse; conditions: mouse, in vivo
# Procedure: In a separate experiment we studied 8 mice with paclitaxel-induced PN treated with PS 8% ointment 3×/d for 2 wks. Mice were euthanized as above 30 minutes after the last dose of PS. From these mice we harvested both sciatic nerves dividing each into proximal and distal halves, and combined the corresponding halves of every two animals for assay of drug levels.
# [2] = system: mice with paclitaxel-induced CIPN; assay: von Frey PWT, paclitaxel CIPN model, orally administered compounds; format: in vivo, mouse; conditions: for PWT: oral gavage 3x/day 6 days: ibuprofen 40, PI 80, PIA 80, PGI 60 mg/kg, day 6; for PWT, g: 100 mg/kg oral gavage 3x/day
# Text: CIPN was induced in mice with chemotherapeutic agents using established protocols (Carozzi et al, 2010; Currie et al, 2019; Eldridge et al, 2020). […] This dosing regimen of paclitaxel produces pain associated with CIPN with time courses that are similar to those of pain after paclitaxel administration in cancer patients.
# Group 1: naïve mice (i.e. no paclitaxel, n=8) • 2. Group 2: paclitaxel only (n=8) • 3. Group 3: paclitaxel plus vehicle (n=8) • 4. […] Group 5: paclitaxel pluse sulindac (n=8)
# The PWT test was performed on day 7.
# Phospho-naproxen (PN) and naproxen were given by oral gavage, three times a day for 7 days. Their doses were as follows: PN, 65 mg/kg; naproxen, 35 mg/kg (equimolar to PN). The response of mechanical allodynia to phospho-naproxen (PN) and naproxen was tested on day 7.
# (§1) This dosing regimen of paclitaxel produces pain associated with CIPN with time courses that are similar to those of pain after paclitaxel administration in cancer patients.
# Phospho-ibuprofen (PI) (Formula III), phospho-glycerol-ibuprofen (PGI) (Formula LXXI), phospho-ibuprofen-amide (PIA) (Formula XI), and ibuprofen were given by oral gavage, three times a day for 6 days. Their doses were as follows: ibuprofen, 40 mg/kg; PI, 80 mg/kg; PIA, 80 mg/kg; all three were equimolar.
# The response of mechanical allodynia to these compounds was tested on day 6, using the PWT test.
# as §1
# NO-sulindac (Formula XLIV), HS-sulindac (Formula XXXIV), platinum-sulindac (Formula LXVII), and NOSH-1 (Formula LIX) were given by oral gavage, three times a day throughout the study period. Their doses were all 100 mg/kg.
# The response of mechanical allodynia to these compounds was tested on the days set out in the table below, via the PWT test.
# LXIX was given by oral gavage, once a day for 14 days at a dose of 100 mg/kg.
# The response of mechanical allodynia to these compounds was tested on day 14, via the PWT test.
# [3] = system: mice with chronic constriction injury of the left sciatic nerve (PTPN); assay: von Frey PWT, chronic constriction injury (CCI) model of PTPN, topical compounds; format: in vivo, mouse; conditions: for PWT, g mean ± SEM, Day 14: NOSH-1, LXIX, LXX 5% on left hind paw 3x/day 14 days; for PWT, g Mean ± SEM, Baseline: group value following ligation, prior to treatment
# Procedure: The PWT test was performed following ligation, but prior to treatment to determine baseline values. The PWT was then further measured on day 14.
# [4] = system: mice with paclitaxel-induced neuropathic pain (CIPN); assay: von Frey paw withdrawal threshold (mechanical allodynia), paclitaxel-induced CIPN / central sensitization, treatment of established pain, topical test compounds; format: in vivo, mouse; conditions: for PWT: naproxen 2.4%, aspirin […], ibuprofen 2.5% topical both hind paws 3x/day 14 days; for Paw-withdrawal threshold, g Mean ± SEM, Day 0: group value after paclitaxel, before study drug
# Procedure: Paw withdrawn, licking or shaking were considered positive responses.
# (§2) The first doses were administered 5 days after the last administration of paclitaxel (i.e., at day 0).
# The PWT test was performed prior to the administration of paclitaxel (day −8) to establish the threshold in mice without neuropathic pain associated with CIPN (the value shown is an average of the PWT in all groups at day −8).
# Pain associated with CIPN was established in line with the experiments disclosed herein. Mice were treated with naproxen 2.4% (equimolar to PN 5%), aspirin 1.7% (equimolar to PA2 5%); or ibuprofen 2.5% (equimolar to PI 5%) or vehicle applied topically to both hind paws 3×/day for 14 days.
# CIPN was induced in mice with chemotherapeutic agents using established protocols (Carozzi et al, 2010; Currie et al, 2019; Eldridge et al, 2020).
# The first doses were administered 1 day after the last administration of paclitaxel (i.e., at day 0).
# as §2
# The PWT test was performed on day 21, at the end of the experiment, but was also additionally determined on day 14 for LXIX.
# [5] = system: mice with chronic constriction injury (PTPN); assay: von Frey PWT, CCI model of PTPN, orally administered compounds; format: in vivo, mouse; conditions: for PWT, g Mean ± SEM: oral 3x/day 14 days: PI 80, PIA 80, ibuprofen 40 mg/kg, day 14
# Procedure: Phospho-ibuprofen (PI) (Formula III), phospho-ibuprofen-amide (PIA) (Formula XI), ibuprofen and vehicle control were all administered orally, three times a day for 14 days. Their doses were as follows: PI 80 mg/kg, PIA 80 mg/kg, ibuprofen 40 mg/kg (all three are equimolar). […] Group 1: vehicle (n=5-8) • 2. Group 2: ibuprofen (n=5-8) • 3. Group 3: phospho-ibuprofen (PI) (n=5-8) • 4. Group 4: phospho-ibuprofen-amide (PIA) (n=5-8)
# [6] = system: mice with NTG-induced migraine; assay: von Frey PWT, NTG-induced migraine model, oral or intraperitoneal compounds; format: in vivo, mouse; conditions: oral 30 min after NTG: PS 50, sulindac 33, PN 65, naproxen 35 mg/kg; 30 min after administration
# Procedure: Phosphonaproxen (Formula VIII), and its parent compound, naproxen, were administered orally to each mouse group. All compounds were administered at equimolar doses. In particular, phosponaproxen was administered at 65 mg/kg, and naproxen was administered at 35 mg/kg, 30 minutes after NTG administration. The response of mechanical allodynia was tested 30 minutes after administration.
# [7] = system: mice with NTG-induced chronic migraine; assay: von Frey PWT, NTG-induced chronic migraine model; format: in vivo, mouse; conditions: for PWT, g Mean ± SEM, Day 12 (pre-treatment): day 12 after first NTG dose, before compound administration; for PWT, g Mean ± SEM, Baseline: group baseline prior to NTG (Example 17)
# Text: The NTG-induced chronic migraine model was used as described previously.
# [8] = system: STZ-diabetic rats; format: in vivo, rat; conditions: rat, in vivo
# Text: The animal model corresponds to that used for Example 4, but using a prevention protocol. As in Example 4, the outcome measure, determining the effect of the treatment on the prevention of mechanical allodynia, was the PWT test, using von Frey filaments. The measurements were taken at day −3, before treatment or induction of neuropathic pain associated with DPN, and again at the end of the study period (day 28).
# The rats were randomised into treatment groups as follows, all having an average body weight of about 225 g. • 1. Group 1: naïve rats (n=6) • 2. Group 2: STZ only (n=8) • 3. Group 3: STZ plus vehicle (n=8) • 4. […] Group 5: STZ plus sulindac 0.7% (n=8) • 6. Group 6: STZ plus lidocaine cream 5% (n=8)
# Each treatment group was subjected to a PWT assessment at day −3 in order to determine the baseline of mechanical allodynia.
# For those rats in the lidocaine treatment group, lidocaine cream was applied only once to both hind paws of the rats 30 min before the final PWT measurement on day 28. On day 0, neuropathic pain associated with DPN was induced with the administration of STZ, and the blood glucose was checked on day 3.
# [9] = system: mice with paclitaxel-induced CIPN; assay: thermal allodynia (paw withdrawal latency, radiant heat), paclitaxel CIPN model; format: in vivo, mouse; conditions: NO-sulindac, HS-sulindac 5% topical 3x/day
# Procedure: Group 3: paclitaxel pluse sulindac (n=8)
# Thermal allodynia was also determined for the mice study groups below (with 8 mice per group): • 1. Group 1: naïve mice (i.e. no paclitaxel) • 2. Group 2: paclitaxel only • 3. Group 3: paclitaxel plus vehicle • 4. Group 4: paclitaxel plus NO-sulindace • 5. Group 5: paclitaxel plus thiol-sulindac
compound,measurement,setting,value
CC1=C(CC(=O)O)c2cc(F)ccc2/C1=C\c1ccc(S(C)(=O)=O)cc1 [sulindac sulfone],Fold difference distal vs proximal,[1],4.5
"CCOP(=O)(OCC)OCC(COC(=O)C(C)c1ccc(CC(C)C)cc1)OP(=O)(OCC)OCC (stereo not shown) [PGI, phospho-glycerol-ibuprofen]",PWT,[2],1.60 ± 0.11 g
"O=C(CCCO[N+](=O)[O-])Oc1ccccc1C(=O)Oc1ccc(-c2cc(=S)ss2)cc1 [NOSH1, NOSH-aspirin]","PWT, g",[2]; D 2,D 2 = 0.93 ± 0.17 g
same,"PWT, g",[2]; D 4,D 4 = 1.39 ± 0.15 g
same,"PWT, g",[2]; D 13,D 13 = 1.33 ± 0.11 g
same,"PWT, g mean ± SEM, Day 14",[3],2.00 ± 0.00 g
same,"PWT, g Mean ± SEM, Baseline",[3],0.60 ± 0.00 g
"CC(C)Cc1ccc(C(C)C(=O)O)cc1 (stereo not shown) [Ibuprofen, ibuprofen, reference compound]",PWT,[4],0.60 ± 0.08 g
same,PWT,[2],0.53 ± 0.05 g
same,"PWT, g Mean ± SEM",[5],0.58 ± 0.02 g
NO-aspirin,"PWT, g Mean ± SEM","[4]; paclitaxel 8 mg/kg x4, 5% topical both hind paws 3x/day, Day 8",1.47 ± 0.08 g
"COc1ccc2cc([C@H](C)C(=O)O)ccc2c1 [Naproxen, naproxen, reference compound]",PWT,[4],0.61 ± 0.11 g
same,"PWT, g Mean ± SEM","[2]; paclitaxel 8 mg/kg x4, oral gavage 3x/day 7 days: PS 50, sulindac 33, PN 65, naproxen 35 mg/kg, day 7",0.53 ± 0.05 g
same,"PWT, g Mean ± SEM",[6],0.56 ± 0.02 g
platinum-sulindac [Pt-sulindac],"PWT, g",[2]; D 2,D 2 = 1.01 ± 0.17 g
same,"PWT, g",[2]; D 4,D 4 = 1.03 ± 0.19 g
same,"PWT, g",[2]; D 13,D 13 = 1.34 ± 0.07 g
"CNS(=O)(=O)Cc1ccc2[nH]cc(CCN(C)C)c2c1 [Sumatriptan, sumatriptan]","PWT, g Mean ± SEM, Day 12 (pre-treatment)",[7],0.57 ± 0.02 g
same,"PWT, g Mean ± SEM, Baseline",[7],1.90 ± 0.06 g
COc1ccc2cc(C(C)C(=O)Oc3ccc(C(N)=S)cc3)ccc2c1 (stereo not shown) [LXIX],"PWT, g Mean ± SEM","[4]; LXIX 5% topical both hind paws 3x/day, Day 14",Day 14 = 0.86 ± 0.10 g
same,"PWT, g Mean ± SEM","[4]; LXIX 5% topical both hind paws 3x/day, Day 21",Day 21 = 1.20 ± 0.14 g
same,"PWT, g Mean ± SEM","[2]; LXIX 100 mg/kg oral gavage once a day 14 days, day 14",0.93 ± 0.14 g
same,"PWT, g mean ± SEM, Day 14",[3],1.35 ± 0.23 g
same,"PWT, g Mean ± SEM, Baseline",[3],0.55 ± 0.09 g
"CCOP(=O)(OCC)OCCCCNC(=O)C(C)c1ccc(CC(C)C)cc1 (stereo not shown) [PIA, phosphoibuprofen-amide]",PWT,[2],1.79 ± 0.40 g
same,PWT,"[5]; PIA 80 mg/kg oral 3x/day, day 5",1.43 ± 0.19 g
same,"PWT, g Mean ± SEM",[5],1.74 ± 0.12 g
CCN(CC)CC(=O)Nc1c(C)cccc1C [lidocaine],"von Frey, gm mean ± SEM",[8],34.3 ± 1.6 gm
"CCOP(=O)(OCC)OCC(CNC(=O)C(C)c1ccc(CC(C)C)cc1)OP(=O)(OCC)OCC (stereo not shown) [PGIA, phospho-glycerol-ibuprofen-amide]","PWT, g Mean ± SEM","[4]; mouse, in vivo",1.70 ± 0.25 g
"CCOP(=O)(OCC)OCCCCOC(=O)C(C)c1ccc(CC(C)C)cc1 (stereo not shown) [PI, phospho-ibuprofen]","Paw-withdrawal threshold, g Mean ± SEM, Day 0",[4],0.64 ± 0.05 g
same,"Paw-withdrawal threshold, g Mean ± SEM, Day 14","[4]; mouse, in vivo",0.8 ± 0.07 g
same,PWT,[2],1.41 ± 0.23 g
same,"PWT, g Mean ± SEM","[3]; PI, PN 5% on left hind paw 3x/day 14 days, day 14",1.54 ± 0.19 g
same,"PWT, g Mean ± SEM",[5],0.82 ± 0.07 g
CC(C(=O)Oc1ccc(C(N)=S)cc1)c1cccc(C(=O)c2ccccc2)c1 (stereo not shown) [LXX],"PWT, g mean ± SEM, Day 14",[3],1.28 ± 0.29 g
same,"PWT, g Mean ± SEM, Baseline",[3],0.58 ± 0.07 g
"CC(=O)Oc1ccccc1C(=O)O [Aspirin, aspirin, reference compound]",PWT,[4],0.69 ± 0.10 g
"CC1(C)O[C@@H]2[C@@H](CO[C@@]3(COS(N)(=O)=O)OC(C)(C)O[C@@H]23)O1 [Topiramate, topiramate]","PWT, g Mean ± SEM, Day 12 (pre-treatment)",[7],0.60 ± 0.00 g
same,"PWT, g Mean ± SEM, Baseline",[7],2.40 ± 0.24 g
CC1=C(CC(=O)Oc2ccc(-c3cc(=S)ss3)cc2)c2cc(F)ccc2/C1=C\c1ccc([S+](C)[O-])cc1 (stereo not shown) [HS-sulindac],"PWT, g Mean ± SEM","[4]; paclitaxel 8 mg/kg x4, 5% topical both hind paws 3x/day 17 days",0.99 ± 0.15 g
same,"PWL, sec Mean ± SEM",[9],9.9 ± 0.6 s
same,"PWT, g",[2]; D 2,D 2 = 0.90 ± 0.09 g
same,"PWT, g",[2]; D 4,D 4 = 1.10 ± 0.05 g
same,"PWT, g",[2]; D 13,D 13 = 1.23 ± 0.06 g
CCOP(=O)(OCC)OCC(COC(=O)c1ccccc1OC(C)=O)OP(=O)(OCC)OCC (stereo not shown) [glycero-phospho-aspirin II],"Paw-withdrawal threshold, g Mean ± SEM, Day 0",[4],0.66 ± 0.05 g
same,"Paw-withdrawal threshold, g Mean ± SEM, Day 14","[4]; mouse, in vivo",0.69 ± 0.06 g
